Assay results published in ChEMBL document CHEMBL3779883, “Design and Synthesis of Nonpeptide Inhibitors of Hepatocyte Growth Factor Activation” (ACS Med Chem Lett, 2016).
In brackets after ≈: the same amount, converted by molar mass.

molecular target: Prothrombin (Homo sapiens, UniProt P00734); assay: Inhibition of human recombinant thrombin using H2N(EEdansyl)GKQLRVVNGG (KDabcyl)-NH2 as substrate by fluorometric analysis; details: not given

| Compound | Ki |
| --- | --- |
| COC1CN(CC2CCN(Cc3ccccc3)CC2)C(=O)N(c2cccc(C(=N)N)c2)C1 (centres undefined) | > 100000 nM |
| N=C(N)c1cccc(N2CC(CNC(=O)c3ccccc3)CN(CC3CCN(Cc4ccccc4)CC3)C2=O)c1 (centres undefined) | > 100000 nM |
| CC1CN(Cc2ccc(C(=N)N)cc2)C(=O)N(C2CCN(Cc3ccccc3)CC2)C1 (centres undefined) | 82200 nM |
| N=C(N)c1cccc(N2CC(CO)CN(CC3CCN(Cc4ccccc4)CC3)C2=O)c1 (centres undefined) | 7400 nM |
| N=C(N)c1cccc(N2CC(NC(=O)Cc3ccccc3)CN(CC3CCN(Cc4ccccc4)CC3)C2=O)c1 (centres undefined) | 42300 nM |
| N=C(N)c1cccc(N2CC(NS(=O)(=O)Cc3ccccc3)CN(CC3CCN(Cc4ccccc4)CC3)C2=O)c1 (centres undefined) | 13400 nM |
| N=C(N)c1cccc(N2CC(NS(=O)(=O)c3ccccc3)CN(CC3CCN(Cc4ccccc4)CC3)C2=O)c1 (centres undefined) | 17000 nM |
| N=C(N)c1cccc(N2CC(CNC(=O)Cc3ccccc3)CN(CC3CCN(Cc4ccccc4)CC3)C2=O)c1 (centres undefined) | > 100000 nM |
| CC1CN(CCC2CCN(Cc3ccccc3)CC2)C(=O)N(c2cccc(C(=N)N)c2)C1 (centres undefined) | > 100000 nM |

molecular target: Hepatocyte growth factor activator/Serine protease hepsin/Suppressor of tumorigenicity 14 protein (Homo sapiens) (UniProt Q9Y5Y6+P05981+Q04756); assay: Inhibition of matripase/hepsin/hepatocyte growth factor activator-mediated HGF activation in human 18Co fibroblasts assessed as scattering of human DU145 cells after 24 hrs by crystal violet staining method; format: cell-based; details: not given
Sequence (P05981 whole entry, looked up, one chain of several): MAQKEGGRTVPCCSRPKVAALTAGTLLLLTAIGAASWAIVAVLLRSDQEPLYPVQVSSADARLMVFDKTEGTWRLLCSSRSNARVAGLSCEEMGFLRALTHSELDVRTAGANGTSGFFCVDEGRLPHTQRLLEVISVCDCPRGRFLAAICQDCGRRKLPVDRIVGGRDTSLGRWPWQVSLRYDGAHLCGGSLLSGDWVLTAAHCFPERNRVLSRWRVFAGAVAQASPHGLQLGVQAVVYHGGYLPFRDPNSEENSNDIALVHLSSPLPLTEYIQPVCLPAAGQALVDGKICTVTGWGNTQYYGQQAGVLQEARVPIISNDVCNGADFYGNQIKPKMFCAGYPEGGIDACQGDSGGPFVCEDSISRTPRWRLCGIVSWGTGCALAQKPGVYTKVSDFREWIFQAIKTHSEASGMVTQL

| Compound | inhibition |
| --- | --- |
| N=C(N)c1cccc(N2CC(CO)CN(CC3CCN(Cc4ccccc4)CC3)C2=O)c1 (centres undefined) | Dose-dependent effect |

molecular target: T1, Hepatocyte growth factor activator serine protease (Homo sapiens, UniProt Q04756); assay: Inhibition of human recombinant hepatocyte growth factor activator using H2N(EEdansyl)GKQLRVVNGG (KDabcyl)-NH2 as substrate by fluorometric analysis; format: single protein; details: not given
T1 sequence (Q04756 whole entry): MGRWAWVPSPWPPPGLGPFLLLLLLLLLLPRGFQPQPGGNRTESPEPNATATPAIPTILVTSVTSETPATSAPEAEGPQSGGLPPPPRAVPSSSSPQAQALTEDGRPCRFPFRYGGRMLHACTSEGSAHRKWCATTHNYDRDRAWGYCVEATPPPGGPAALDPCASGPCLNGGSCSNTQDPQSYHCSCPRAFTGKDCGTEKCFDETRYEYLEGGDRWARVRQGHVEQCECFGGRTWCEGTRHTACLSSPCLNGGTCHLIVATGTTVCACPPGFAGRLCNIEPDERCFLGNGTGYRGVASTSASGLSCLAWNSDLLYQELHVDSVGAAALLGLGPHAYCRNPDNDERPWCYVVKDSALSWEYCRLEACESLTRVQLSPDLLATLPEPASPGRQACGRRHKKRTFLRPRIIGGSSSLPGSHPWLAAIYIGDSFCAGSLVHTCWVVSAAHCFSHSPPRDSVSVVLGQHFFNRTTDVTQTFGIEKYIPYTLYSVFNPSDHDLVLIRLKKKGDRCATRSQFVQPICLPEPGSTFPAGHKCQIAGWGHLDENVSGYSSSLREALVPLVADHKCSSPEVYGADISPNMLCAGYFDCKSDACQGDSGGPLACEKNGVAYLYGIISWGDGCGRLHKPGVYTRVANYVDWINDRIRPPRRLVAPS

| Compound | Ki |
| --- | --- |
| COC1CN(CC2CCN(Cc3ccccc3)CC2)C(=O)N(c2cccc(C(=N)N)c2)C1 (centres undefined) | 2490 nM |
| N=C(N)c1cccc(N2CC(CNC(=O)c3ccccc3)CN(CC3CCN(Cc4ccccc4)CC3)C2=O)c1 (centres undefined) | 1100 nM |
| CC1CN(Cc2ccc(C(=N)N)cc2)C(=O)N(C2CCN(Cc3ccccc3)CC2)C1 (centres undefined) | 39600 nM |
| N=C(N)c1cccc(N2CC(CO)CN(CC3CCN(Cc4ccccc4)CC3)C2=O)c1 (centres undefined) | 230 nM |
| N=C(N)c1cccc(N2CC(NC(=O)Cc3ccccc3)CN(CC3CCN(Cc4ccccc4)CC3)C2=O)c1 (centres undefined) | 380 nM |
| N=C(N)c1cccc(N2CC(NS(=O)(=O)Cc3ccccc3)CN(CC3CCN(Cc4ccccc4)CC3)C2=O)c1 (centres undefined) | 440 nM |
| N=C(N)c1cccc(N2CC(NS(=O)(=O)c3ccccc3)CN(CC3CCN(Cc4ccccc4)CC3)C2=O)c1 (centres undefined) | 520 nM |
| N=C(N)c1cccc(N2CC(CNC(=O)Cc3ccccc3)CN(CC3CCN(Cc4ccccc4)CC3)C2=O)c1 (centres undefined) | 1080 nM |
| CC1CN(CCC2CCN(Cc3ccccc3)CC2)C(=O)N(c2cccc(C(=N)N)c2)C1 (centres undefined) | 1110 nM |

molecular target: Trypsin (Homo sapiens, UniProt P07477+P07478+P35030); assay: Inhibition of human recombinant trypsin using H2N(EEdansyl)GKQLRVVNGG (KDabcyl)-NH2 as substrate by fluorometric analysis; format: protein assay; details: not given

| Compound | Ki |
| --- | --- |
| COC1CN(CC2CCN(Cc3ccccc3)CC2)C(=O)N(c2cccc(C(=N)N)c2)C1 (centres undefined) | 760 nM |
| N=C(N)c1cccc(N2CC(CNC(=O)c3ccccc3)CN(CC3CCN(Cc4ccccc4)CC3)C2=O)c1 (centres undefined) | 330 nM |
| CC1CN(Cc2ccc(C(=N)N)cc2)C(=O)N(C2CCN(Cc3ccccc3)CC2)C1 (centres undefined) | 4800 nM |
| N=C(N)c1cccc(N2CC(CO)CN(CC3CCN(Cc4ccccc4)CC3)C2=O)c1 (centres undefined) | 150 nM |
| N=C(N)c1cccc(N2CC(NC(=O)Cc3ccccc3)CN(CC3CCN(Cc4ccccc4)CC3)C2=O)c1 (centres undefined) | 500 nM |
| N=C(N)c1cccc(N2CC(NS(=O)(=O)Cc3ccccc3)CN(CC3CCN(Cc4ccccc4)CC3)C2=O)c1 (centres undefined) | 310 nM |
| N=C(N)c1cccc(N2CC(NS(=O)(=O)c3ccccc3)CN(CC3CCN(Cc4ccccc4)CC3)C2=O)c1 (centres undefined) | 340 nM |
| N=C(N)c1cccc(N2CC(CNC(=O)Cc3ccccc3)CN(CC3CCN(Cc4ccccc4)CC3)C2=O)c1 (centres undefined) | 590 nM |
| CC1CN(CCC2CCN(Cc3ccccc3)CC2)C(=O)N(c2cccc(C(=N)N)c2)C1 (centres undefined) | 2770 nM |

molecular target: T2, Suppressor of tumorigenicity 14 protein (Homo sapiens, UniProt Q9Y5Y6); assay: Inhibition of human recombinant matripase catalytic domain using H2N(EEdansyl)GKQLRVVNGG (KDabcyl)-NH2 as substrate by fluorometric analysis; details: not given
T2 sequence (Q9Y5Y6 whole entry): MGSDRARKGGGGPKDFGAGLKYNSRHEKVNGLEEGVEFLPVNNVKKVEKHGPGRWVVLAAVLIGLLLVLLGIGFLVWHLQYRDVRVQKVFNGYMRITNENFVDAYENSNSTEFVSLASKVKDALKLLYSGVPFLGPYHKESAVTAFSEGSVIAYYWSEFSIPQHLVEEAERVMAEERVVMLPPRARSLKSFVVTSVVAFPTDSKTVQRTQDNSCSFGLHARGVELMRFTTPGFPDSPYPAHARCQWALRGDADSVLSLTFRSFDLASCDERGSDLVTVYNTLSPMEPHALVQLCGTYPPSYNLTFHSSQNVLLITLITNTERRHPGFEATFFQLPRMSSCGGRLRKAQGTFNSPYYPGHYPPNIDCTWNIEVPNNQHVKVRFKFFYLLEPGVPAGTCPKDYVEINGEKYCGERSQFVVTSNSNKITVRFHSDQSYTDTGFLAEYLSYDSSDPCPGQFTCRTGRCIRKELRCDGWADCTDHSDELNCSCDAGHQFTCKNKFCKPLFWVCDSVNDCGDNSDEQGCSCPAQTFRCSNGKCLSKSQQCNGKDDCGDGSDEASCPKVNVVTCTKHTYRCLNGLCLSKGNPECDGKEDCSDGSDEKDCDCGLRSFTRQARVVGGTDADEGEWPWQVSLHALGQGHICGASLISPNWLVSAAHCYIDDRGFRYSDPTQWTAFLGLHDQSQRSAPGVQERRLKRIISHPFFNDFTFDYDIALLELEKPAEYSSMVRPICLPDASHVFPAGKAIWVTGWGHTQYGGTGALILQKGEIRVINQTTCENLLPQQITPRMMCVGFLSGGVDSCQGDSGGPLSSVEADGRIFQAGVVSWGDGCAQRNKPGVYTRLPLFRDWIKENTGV

| Compound | Ki |
| --- | --- |
| COC1CN(CC2CCN(Cc3ccccc3)CC2)C(=O)N(c2cccc(C(=N)N)c2)C1 (centres undefined) | 810 nM |
| N=C(N)c1cccc(N2CC(CNC(=O)c3ccccc3)CN(CC3CCN(Cc4ccccc4)CC3)C2=O)c1 (centres undefined) | 470 nM |
| CC1CN(Cc2ccc(C(=N)N)cc2)C(=O)N(C2CCN(Cc3ccccc3)CC2)C1 (centres undefined) | 15400 nM |
| N=C(N)c1cccc(N2CC(CO)CN(CC3CCN(Cc4ccccc4)CC3)C2=O)c1 (centres undefined) | 580 nM |
| N=C(N)c1cccc(N2CC(NC(=O)Cc3ccccc3)CN(CC3CCN(Cc4ccccc4)CC3)C2=O)c1 (centres undefined) | 1280 nM |
| N=C(N)c1cccc(N2CC(NS(=O)(=O)Cc3ccccc3)CN(CC3CCN(Cc4ccccc4)CC3)C2=O)c1 (centres undefined) | 350 nM |
| N=C(N)c1cccc(N2CC(NS(=O)(=O)c3ccccc3)CN(CC3CCN(Cc4ccccc4)CC3)C2=O)c1 (centres undefined) | 520 nM |
| N=C(N)c1cccc(N2CC(CNC(=O)Cc3ccccc3)CN(CC3CCN(Cc4ccccc4)CC3)C2=O)c1 (centres undefined) | 1510 nM |
| CC1CN(CCC2CCN(Cc3ccccc3)CC2)C(=O)N(c2cccc(C(=N)N)c2)C1 (centres undefined) | 510 nM |

test system: not listed separately; assay: Kinetic solubility of the compound at pH 7.4; format: physicochemical; details: buffer, read-out: Kinetic_solubility

| Compound | solubility kinetic |
| --- | --- |
| COC1CN(CC2CCN(Cc3ccccc3)CC2)C(=O)N(c2cccc(C(=N)N)c2)C1 (centres undefined) | 47 µM (≈ 20.5 µg/mL) |
| N=C(N)c1cccc(N2CC(CO)CN(CC3CCN(Cc4ccccc4)CC3)C2=O)c1 (centres undefined) | 47 µM (≈ 20.5 µg/mL) |

molecular target: Serine protease hepsin (Homo sapiens, UniProt P05981); assay: Inhibition of human recombinant hepsin using H2N(EEdansyl)GKQLRVVNGG (KDabcyl)-NH2 as substrate by fluorometric analysis; details: not given
Sequence (P05981 1-162 limits assumed): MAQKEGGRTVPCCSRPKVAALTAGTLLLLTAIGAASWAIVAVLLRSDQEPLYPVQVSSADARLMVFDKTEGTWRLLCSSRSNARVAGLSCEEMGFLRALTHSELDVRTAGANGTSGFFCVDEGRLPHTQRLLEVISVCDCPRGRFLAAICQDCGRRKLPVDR
Sequence (P05981 163-417 limits assumed): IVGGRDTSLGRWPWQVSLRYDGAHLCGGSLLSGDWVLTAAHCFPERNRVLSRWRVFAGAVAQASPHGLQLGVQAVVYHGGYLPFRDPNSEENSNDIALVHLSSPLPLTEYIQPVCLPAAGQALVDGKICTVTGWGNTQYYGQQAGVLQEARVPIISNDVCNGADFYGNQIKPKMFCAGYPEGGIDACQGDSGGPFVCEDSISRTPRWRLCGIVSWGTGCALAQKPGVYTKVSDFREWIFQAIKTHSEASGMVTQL

| Compound | Ki |
| --- | --- |
| COC1CN(CC2CCN(Cc3ccccc3)CC2)C(=O)N(c2cccc(C(=N)N)c2)C1 (centres undefined) | 760 nM |
| N=C(N)c1cccc(N2CC(CNC(=O)c3ccccc3)CN(CC3CCN(Cc4ccccc4)CC3)C2=O)c1 (centres undefined) | 1100 nM |
| CC1CN(Cc2ccc(C(=N)N)cc2)C(=O)N(C2CCN(Cc3ccccc3)CC2)C1 (centres undefined) | 20800 nM |
| N=C(N)c1cccc(N2CC(CO)CN(CC3CCN(Cc4ccccc4)CC3)C2=O)c1 (centres undefined) | 690 nM |
| N=C(N)c1cccc(N2CC(NC(=O)Cc3ccccc3)CN(CC3CCN(Cc4ccccc4)CC3)C2=O)c1 (centres undefined) | 1120 nM |
| N=C(N)c1cccc(N2CC(NS(=O)(=O)Cc3ccccc3)CN(CC3CCN(Cc4ccccc4)CC3)C2=O)c1 (centres undefined) | 530 nM |
| N=C(N)c1cccc(N2CC(NS(=O)(=O)c3ccccc3)CN(CC3CCN(Cc4ccccc4)CC3)C2=O)c1 (centres undefined) | 670 nM |
| N=C(N)c1cccc(N2CC(CNC(=O)Cc3ccccc3)CN(CC3CCN(Cc4ccccc4)CC3)C2=O)c1 (centres undefined) | 310 nM |
| CC1CN(CCC2CCN(Cc3ccccc3)CC2)C(=O)N(c2cccc(C(=N)N)c2)C1 (centres undefined) | 2120 nM |

test system: not listed separately; assay: Lipophilicity, logD of the compound at pH 7.4 by shake-flask method; format: physicochemical; details: buffer

| Compound | logD |
| --- | --- |
| COC1CN(CC2CCN(Cc3ccccc3)CC2)C(=O)N(c2cccc(C(=N)N)c2)C1 (centres undefined) | < 2 |
| N=C(N)c1cccc(N2CC(CO)CN(CC3CCN(Cc4ccccc4)CC3)C2=O)c1 (centres undefined) | < 2 |

molecular target: Coagulation factor X (Homo sapiens, UniProt P00742); assay: Inhibition of human recombinant factor 10a using H2N(EEdansyl)GKQLRVVNGG (KDabcyl)-NH2 as substrate by fluorometric analysis; details: not given
Sequence (P00742 41-179 limits assumed): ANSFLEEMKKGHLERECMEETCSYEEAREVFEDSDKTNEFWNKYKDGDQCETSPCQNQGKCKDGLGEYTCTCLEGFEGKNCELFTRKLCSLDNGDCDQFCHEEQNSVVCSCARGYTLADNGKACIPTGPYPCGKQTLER
Sequence (P00742 235-488 limits assumed): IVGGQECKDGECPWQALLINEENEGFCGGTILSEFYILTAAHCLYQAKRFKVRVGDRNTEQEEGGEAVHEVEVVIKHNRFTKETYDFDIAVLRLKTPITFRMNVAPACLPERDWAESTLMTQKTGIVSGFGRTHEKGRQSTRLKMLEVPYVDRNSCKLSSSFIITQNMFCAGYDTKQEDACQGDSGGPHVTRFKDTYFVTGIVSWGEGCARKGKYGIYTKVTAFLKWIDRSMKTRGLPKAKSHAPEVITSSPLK

| Compound | Ki |
| --- | --- |
| COC1CN(CC2CCN(Cc3ccccc3)CC2)C(=O)N(c2cccc(C(=N)N)c2)C1 (centres undefined) | 1230 nM |
| N=C(N)c1cccc(N2CC(CNC(=O)c3ccccc3)CN(CC3CCN(Cc4ccccc4)CC3)C2=O)c1 (centres undefined) | 750 nM |
| CC1CN(Cc2ccc(C(=N)N)cc2)C(=O)N(C2CCN(Cc3ccccc3)CC2)C1 (centres undefined) | 22800 nM |
| N=C(N)c1cccc(N2CC(CO)CN(CC3CCN(Cc4ccccc4)CC3)C2=O)c1 (centres undefined) | 250 nM |
| N=C(N)c1cccc(N2CC(NC(=O)Cc3ccccc3)CN(CC3CCN(Cc4ccccc4)CC3)C2=O)c1 (centres undefined) | 740 nM |
| N=C(N)c1cccc(N2CC(NS(=O)(=O)Cc3ccccc3)CN(CC3CCN(Cc4ccccc4)CC3)C2=O)c1 (centres undefined) | 660 nM |
| N=C(N)c1cccc(N2CC(NS(=O)(=O)c3ccccc3)CN(CC3CCN(Cc4ccccc4)CC3)C2=O)c1 (centres undefined) | 610 nM |
| N=C(N)c1cccc(N2CC(CNC(=O)Cc3ccccc3)CN(CC3CCN(Cc4ccccc4)CC3)C2=O)c1 (centres undefined) | 1550 nM |
| CC1CN(CCC2CCN(Cc3ccccc3)CC2)C(=O)N(c2cccc(C(=N)N)c2)C1 (centres undefined) | 400 nM |
